Data: patent US20230303549A1, “SUBSTITUTED HETEROARYLOXYPYRIDINES, THE SALTS THEREOF AND THEIR USE AS HERBICIDAL AGENTS” (Bayer Aktiengesellschaft, priority 2020, published 2023)

Columns and labels:
Assay type in all cases: in vivo
[1] = test system: Setaria viridis (SETVI); assay: Post-emergence herbicidal efficacy at 80 g/ha, greenhouse pot test; settings: visual rating vs untreated control after about 3 weeks
In short: (§1)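 Visual rating of activity versus untreated plants after about 3 greenhouse weeks, 0% meaning control-like and 100% meaning dead. Plants in sandy loam were sprayed at one-leaf stage (2–3 weeks post-sowing) with WP/EC compound suspensions or emulsions, 0.5% additive, 600 l/ha water.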

[2] = test system: Amaranthus retroflexus (AMARE); assay: as above; settings: visual rating vs untreated control after about 3 weeks
In short: as §1

[3] = test system: Echinochloa crus-galli (ECHCG); assay: Pre-emergence herbicide efficacy at 80 g/ha, greenhouse pot test; settings: visual scoring vs untreated control after about 3 weeks
In short: (§2)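 Seeds were sown in pots and covered with soil, then the compound (WP or EC formulation) was sprayed onto the soil surface as an aqueous suspension or emulsion with 0.5% additive. Pots were kept in a greenhouse, and after about 3 weeks activity was scored visually versus untreated controls (100% = plants dead, 0% = like control).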

[4] = test system: Polygonum convolvulus (POLCO); assay: as above; settings: visual scoring vs untreated control after about 3 weeks
In short: as §2

[5] = test system: Setaria viridis (SETVI); assay: as above; settings: visual scoring vs untreated control after about 3 weeks
In short: as §2

[6] = test system: Veronica persica (VERPE); assay: as above; settings: visual scoring vs untreated control after about 3 weeks
In short: as §2

[7] = test system: Viola tricolor (VIOTR); assay: as above; settings: visual scoring vs untreated control after about 3 weeks
In short: as §2

[8] = test system: Abutilon theophrasti (ABUTH); assay: as above; settings: visual scoring vs untreated control after about 3 weeks
In short: as §2

[9] = test system: Amaranthus retroflexus (AMARE); assay: as above; settings: visual scoring vs untreated control after about 3 weeks
In short: as §2

[10] = test system: Echinochloa crus-galli (ECHCG); assay: Pre-emergence herbicide efficacy at 320 g/ha, greenhouse pot test; settings: visual scoring vs untreated control after about 3 weeks
In short: (§3)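 Seeds sown in sandy loam, covered; formulated compound (WP or EC, 0.5% additive) applied to soil surface at 600 L/ha water; pots kept in greenhouse under good growth conditions; visual % damage scored at about 3 weeks relative to untreated.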

[11] = test system: Alopecurus myosuroides (ALOMY); assay: as above; settings: visual scoring vs untreated control after about 3 weeks
In short: as §3

[12] = test system: Poa annua (POAAN); assay: as above; settings: visual scoring vs untreated control after about 3 weeks
In short: as §3

[13] = test system: Stellaria media (STEME); assay: as above; settings: visual scoring vs untreated control after about 3 weeks
In short: as §3

[14] = test system: Setaria viridis (SETVI); assay: as above; settings: visual scoring vs untreated control after about 3 weeks
In short: as §3

[15] = test system: Veronica persica (VERPE); assay: as above; settings: visual scoring vs untreated control after about 3 weeks
In short: as §3

[16] = test system: Matricaria inodora (MATIN); assay: as above; settings: visual scoring vs untreated control after about 3 weeks
In short: as §3

[17] = test system: Abutilon theophrasti (ABUTH); assay: as above; settings: visual scoring vs untreated control after about 3 weeks
In short: as §3

[18] = test system: Bassia scoparia (KCHSC); assay: as above; settings: dosage 1280 g/ha in Table C6, visual scoring after about 3 weeks
In short: as §3

[19] = test system: Amaranthus retroflexus (AMARE); assay: as above; settings: visual scoring vs untreated control after about 3 weeks
In short: as §3

[20] = test system: Poa annua (POAAN); assay: Post-emergence herbicidal efficacy at 320 g/ha, greenhouse pot test; settings: visual rating vs untreated control after about 3 weeks
In short: (§4)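 Scoring was visual, about 3 weeks post-treatment, versus untreated plants on a 0–100% scale (100% = dead). Foliar application to one-leaf-stage greenhouse weeds in sandy loam, compounds as aqueous WP/EC suspension or emulsion with 0.5% additive, 600 L/ha spray volume.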

[21] = test system: Stellaria media (STEME); assay: as above; settings: visual rating vs untreated control after about 3 weeks
In short: as §4

[22] = test system: Veronica persica (VERPE); assay: as above; settings: 320 g/ha, visual rating vs untreated control after about 3 weeks
In short: as §4

[23] = test system: Abutilon theophrasti (ABUTH); assay: as above; settings: visual rating vs untreated control after about 3 weeks
In short: as §4

[24] = test system: Bassia scoparia (KCHSC); assay: as above; settings: visual rating vs untreated control after about 3 weeks
In short: as §4

[25] = test system: Amaranthus retroflexus (AMARE); assay: as above; settings: visual rating vs untreated control after about 3 weeks
In short: as §4

[26] = test system: Alopecurus myosuroides (ALOMY); assay: Pre-emergence herbicide efficacy at 80 g/ha, greenhouse pot test; settings: visual scoring vs untreated control after about 3 weeks
In short: as §2

[27] = test system: Matricaria inodora (MATIN); assay: as above; settings: visual scoring vs untreated control after about 3 weeks
In short: as §2

[28] = test system: Ipomoea purpurea (PHBPU); assay: as above; settings: visual scoring vs untreated control after about 3 weeks
In short: as §2

Row | SMILES | Post-emergence efficacy against Setaria viridis (SETVI) [1] [%] | Post-emergence efficacy against Amaranthus retroflexus (AMARE) [2] [%] | Pre-emergence efficacy against Echinochloa crus-galli (ECHCG) [3] [%] | Pre-emergence efficacy against Polygonum convolvulus (POLCO) [4] [%] | Pre-emergence efficacy against Setaria viridis (SETVI) [5] [%] | Pre-emergence efficacy against Veronica persica (VERPE) [6] [%] | Pre-emergence efficacy against Viola tricolor (VIOTR) [7] [%] | Pre-emergence efficacy against Abutilon theophrasti (ABUTH) [8] [%] | Pre-emergence efficacy against Amaranthus retroflexus (AMARE) [9] [%] | Pre-emergence efficacy against Echinochloa crus-galli (ECHCG) [10] [%] | Pre-emergence efficacy against Poa annua (POAAN) [12] [%] | Pre-emergence efficacy against Stellaria media (STEME) [13] [%] | Pre-emergence efficacy against Setaria viridis (SETVI) [14] [%] | Pre-emergence efficacy against Veronica persica (VERPE) [15] [%] | Pre-emergence efficacy against Matricaria inodora (MATIN) [16] [%] | Pre-emergence efficacy against Abutilon theophrasti (ABUTH) [17] [%] | Pre-emergence efficacy against Bassia scoparia (KCHSC) [18] [%] | Pre-emergence efficacy against Amaranthus retroflexus (AMARE) [19] [%] | Post-emergence efficacy against Poa annua (POAAN) [20] [%] | Post-emergence action against Stellaria media (STEME) [21] [%] | also measured
1 | Cc1cc(C)c(-c2cc(C(F)F)no2)c(Oc2ncc(C(F)(F)F)cn2)n1 [Example I-45] | 80 | 80 | 80 | 80 | 90 | 80 | 90 | 90 | 100 | 100 | 100 | 100 | 100 | 100 | 100 | 100 | 100 | 100 | 100 | 100 | Pre-emergence efficacy against Alopecurus myosuroides (ALOMY) [11]: 100%; Post-emergence efficacy against Veronica persica (VERPE) [22]: 100%; Post-emergence efficacy against Abutilon theophrasti (ABUTH) [23]: 90%; Post-emergence efficacy against Bassia scoparia (KCHSC) [24]: 90%; Post-emergence efficacy against Amaranthus retroflexus (AMARE) [25]: 100%
2 | Cc1cc(C)c(-n2cc(Br)cn2)c(Oc2ncc(F)cn2)n1 [Example I-277] | 80 | 80 | 100 | 100 | 100 | 80 | 100 | 90 | 100 | 100 | 100 | 100 | 100 | 100 | 90 | 100 | 100 | 100 | 90 | 90 | Pre-emergence efficacy against Alopecurus myosuroides (ALOMY) [26]: 80%; Pre-emergence efficacy against Matricaria inodora (MATIN) [27]: 100%; Pre-emergence efficacy against Ipomoea purpurea (PHBPU) [28]: 100%; Post-emergence efficacy against Veronica persica (VERPE) [22]: 90%; Post-emergence efficacy against Abutilon theophrasti (ABUTH) [23]: 90%; Post-emergence efficacy against Bassia scoparia (KCHSC) [24]: 100%; Post-emergence efficacy against Amaranthus retroflexus (AMARE) [25]: 100%
